Test system: Detoxification protein genes
Assay: DNA chip mRNA expression in yeast, detoxification protein genes (Table 8)
Assay type: cell-based, Saccharomyces cerevisiae S288C
Method in brief: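 Whole-genome yeast DNA chip hybridization (65° C., >12 h) of Cy-labeled cDNA from S288C cells exposed 2 h at 25° C. to a sub-lethal toxicant dose in YPD; value is intensity relative to chemical-free control.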

“manganese ethylenebis(dithiocarbamate) [(8)]” was tested, and the “The level of expressed mRNA in the presence of chemical substance/The level of expressed mRNA in the absence of chemical substance” value (yeast gene YBL064C) was 2.4, the “The level of expressed mRNA in the presence of chemical substance/The level of expressed mRNA in the absence of chemical substance” value (yeast gene YBR008C) was 2.8 and the “The level of expressed mRNA in the presence of chemical substance/The level of expressed mRNA in the absence of chemical substance” value (yeast gene YBR145W) was 1.0. The “The level of expressed mRNA in the presence of chemical substance/The level of expressed mRNA in the absence of chemical substance” value (yeast gene YBR244W) was 1.0, the “The level of expressed mRNA in the presence of chemical substance/The level of expressed mRNA in the absence of chemical substance” value (yeast gene YBR293W) was 0.9 and the “The level of expressed mRNA in the presence of chemical substance/The level of expressed mRNA in the absence of chemical substance” value (yeast gene YCL035C) was 1.4. The “The level of expressed mRNA in the presence of chemical substance/The level of expressed mRNA in the absence of chemical substance” value (yeast gene YCL069W) was 1.3, the “The level of expressed mRNA in the presence of chemical substance/The level of expressed mRNA in the absence of chemical substance” value (yeast gene YCR083W) was 1.5 and the “The level of expressed mRNA in the presence of chemical substance/The level of expressed mRNA in the absence of chemical substance” value (yeast gene YDL100C) was 1.7. The “The level of expressed mRNA in the presence of chemical substance/The level of expressed mRNA in the absence of chemical substance” value (yeast gene YDL168W) was 1.7, the “The level of expressed mRNA in the presence of chemical substance/The level of expressed mRNA in the absence of chemical substance” value (yeast gene YDR256C) was 0.8 and the “The level of expressed mRNA in the presence of chemical substance/The level of expressed mRNA in the absence of chemical substance” value (yeast gene YDR453C) was 1.3. For the same substance, the “The level of expressed mRNA in the presence of chemical substance/The level of expressed mRNA in the absence of chemical substance” value (yeast gene YDR513W) was 1.6, the “The level of expressed mRNA in the presence of chemical substance/The level of expressed mRNA in the absence of chemical substance” value (yeast gene YDR538W) was 1.0 and the “The level of expressed mRNA in the presence of chemical substance/The level of expressed mRNA in the absence of chemical substance” value (yeast gene YEL027W) was 0.9. For the same substance, the “The level of expressed mRNA in the presence of chemical substance/The level of expressed mRNA in the absence of chemical substance” value (yeast gene YEL065W) was 0.9, the “The level of expressed mRNA in the presence of chemical substance/The level of expressed mRNA in the absence of chemical substance” value (yeast gene YER185W) was 1.0 and the “The level of expressed mRNA in the presence of chemical substance/The level of expressed mRNA in the absence of chemical substance” value (yeast gene YFL050C) was 0.9. For the same substance, the “The level of expressed mRNA in the presence of chemical substance/The level of expressed mRNA in the absence of chemical substance” value (yeast gene YGL013C) was 1.4, the “The level of expressed mRNA in the presence of chemical substance/The level of expressed mRNA in the absence of chemical substance” value (yeast gene YGL254W) was 1.4 and the “The level of expressed mRNA in the presence of chemical substance/The level of expressed mRNA in the absence of chemical substance” value (yeast gene YGR088W) was 0.8. The “The level of expressed mRNA in the presence of chemical substance/The level of expressed mRNA in the absence of chemical substance” value (yeast gene YGR138C) was 1.0, the “The level of expressed mRNA in the presence of chemical substance/The level of expressed mRNA in the absence of chemical substance” value (yeast gene YGR197C) was 0.8 and the “The level of expressed mRNA in the presence of chemical substance/The level of expressed mRNA in the absence of chemical substance” value (yeast gene YGR209C) was 1.6. For the same substance, the “The level of expressed mRNA in the presence of chemical substance/The level of expressed mRNA in the absence of chemical substance” value (yeast gene YGR224W) was 0.6, the “The level of expressed mRNA in the presence of chemical substance/The level of expressed mRNA in the absence of chemical substance” value (yeast gene YHL040C) was 1.5 and the “The level of expressed mRNA in the presence of chemical substance/The level of expressed mRNA in the absence of chemical substance” value (yeast gene YHL047C) was 1.5. The “The level of expressed mRNA in the presence of chemical substance/The level of expressed mRNA in the absence of chemical substance” value (yeast gene YHR008C) was 0.9, the “The level of expressed mRNA in the presence of chemical substance/The level of expressed mRNA in the absence of chemical substance” value (yeast gene YHR048W) was 1.9 and the “The level of expressed mRNA in the presence of chemical substance/The level of expressed mRNA in the absence of chemical substance” value (yeast gene YHR053C) was 2.2. The “The level of expressed mRNA in the presence of chemical substance/The level of expressed mRNA in the absence of chemical substance” value (yeast gene YHR055C) was 2.1, the “The level of expressed mRNA in the presence of chemical substance/The level of expressed mRNA in the absence of chemical substance” value (yeast gene YIR002C) was 1.2 and the “The level of expressed mRNA in the presence of chemical substance/The level of expressed mRNA in the absence of chemical substance” value (yeast gene YIR038C) was 1.3. For the same substance, the “The level of expressed mRNA in the presence of chemical substance/The level of expressed mRNA in the absence of chemical substance” value (yeast gene YJL101C) was 1.3, the “The level of expressed mRNA in the presence of chemical substance/The level of expressed mRNA in the absence of chemical substance” value (yeast gene YJR104C) was 1.5 and the “The level of expressed mRNA in the presence of chemical substance/The level of expressed mRNA in the absence of chemical substance” value (yeast gene YKL026C) was 1.8. For the same substance, the “The level of expressed mRNA in the presence of chemical substance/The level of expressed mRNA in the absence of chemical substance” value (yeast gene YKL064W) was 0.9, the “The level of expressed mRNA in the presence of chemical substance/The level of expressed mRNA in the absence of chemical substance” value (yeast gene YKR066C) was 0.7 and the “The level of expressed mRNA in the presence of chemical substance/The level of expressed mRNA in the absence of chemical substance” value (yeast gene YKR105C) was 1.3. For the same substance, the “The level of expressed mRNA in the presence of chemical substance/The level of expressed mRNA in the absence of chemical substance” value (yeast gene YKR106W) was 1.3, the “The level of expressed mRNA in the presence of chemical substance/The level of expressed mRNA in the absence of chemical substance” value (yeast gene YLL028W) was 0.7 and the “The level of expressed mRNA in the presence of chemical substance/The level of expressed mRNA in the absence of chemical substance” value (yeast gene YLL057C) was 1.4. The “The level of expressed mRNA in the presence of chemical substance/The level of expressed mRNA in the absence of chemical substance” value (yeast gene YLL060C) was 5.8, the “The level of expressed mRNA in the presence of chemical substance/The level of expressed mRNA in the absence of chemical substance” value (yeast gene YLR043C) was 1.1 and the “The level of expressed mRNA in the presence of chemical substance/The level of expressed mRNA in the absence of chemical substance” value (yeast gene YLR046C) was 0.5. For the same substance, the “The level of expressed mRNA in the presence of chemical substance/The level of expressed mRNA in the absence of chemical substance” value (yeast gene YML028W) was 0.8, the “The level of expressed mRNA in the presence of chemical substance/The level of expressed mRNA in the absence of chemical substance” value (yeast gene YML116W) was 2.2 and the “The level of expressed mRNA in the presence of chemical substance/The level of expressed mRNA in the absence of chemical substance” value (yeast gene YMR015C) was 0.7. The “The level of expressed mRNA in the presence of chemical substance/The level of expressed mRNA in the absence of chemical substance” value (yeast gene YMR038C) was 1.9, the “The level of expressed mRNA in the presence of chemical substance/The level of expressed mRNA in the absence of chemical substance” value (yeast gene YNL239W) was 1.3 and the “The level of expressed mRNA in the presence of chemical substance/The level of expressed mRNA in the absence of chemical substance” value (yeast gene YNL241C) was 0.9. For the same substance, the “The level of expressed mRNA in the presence of chemical substance/The level of expressed mRNA in the absence of chemical substance” value (yeast gene YNL259C) was 1.5, the “The level of expressed mRNA in the presence of chemical substance/The level of expressed mRNA in the absence of chemical substance” value (yeast gene YOL158C) was 0.7 and the “The level of expressed mRNA in the presence of chemical substance/The level of expressed mRNA in the absence of chemical substance” value (yeast gene YOR031W) was 0.9. For the same substance, the “The level of expressed mRNA in the presence of chemical substance/The level of expressed mRNA in the absence of chemical substance” value (yeast gene YOR153W) was 0.5, the “The level of expressed mRNA in the presence of chemical substance/The level of expressed mRNA in the absence of chemical substance” value (yeast gene YOR247W) was 0.7 and the “The level of expressed mRNA in the presence of chemical substance/The level of expressed mRNA in the absence of chemical substance” value (yeast gene YOR251C) was 1.1. For the same substance, the “The level of expressed mRNA in the presence of chemical substance/The level of expressed mRNA in the absence of chemical substance” value (yeast gene YOR273C) was 0.6, the “The level of expressed mRNA in the presence of chemical substance/The level of expressed mRNA in the absence of chemical substance” value (yeast gene YPL163C) was 0.5 and the “The level of expressed mRNA in the presence of chemical substance/The level of expressed mRNA in the absence of chemical substance” value (yeast gene YPR200C) was 1.4.
